Measured values taken from patent publication US11485740B2, “Inhibitors of TRPC6” (Boehringer Ingelheim International GmbH, priority 2018, dated 2022).

The compounds below were run against T1, human TRPC6 (Homo sapiens, UniProt Q9Y210) (assay: High throughput screening assay: Fluo4/AM calcium fluorescence in HEK293/TREx cells expressing human TRPC6, agonist GSK1702934A (single concentration 10 μM and IC50 curves)). Conditions: antagonist effect against human TRPC6, 7 concentrations 20 μM to 0.027 μM, triplicate.
T1 construct: expressed in transfected cells
T1 sequence (Q9Y210 1-931): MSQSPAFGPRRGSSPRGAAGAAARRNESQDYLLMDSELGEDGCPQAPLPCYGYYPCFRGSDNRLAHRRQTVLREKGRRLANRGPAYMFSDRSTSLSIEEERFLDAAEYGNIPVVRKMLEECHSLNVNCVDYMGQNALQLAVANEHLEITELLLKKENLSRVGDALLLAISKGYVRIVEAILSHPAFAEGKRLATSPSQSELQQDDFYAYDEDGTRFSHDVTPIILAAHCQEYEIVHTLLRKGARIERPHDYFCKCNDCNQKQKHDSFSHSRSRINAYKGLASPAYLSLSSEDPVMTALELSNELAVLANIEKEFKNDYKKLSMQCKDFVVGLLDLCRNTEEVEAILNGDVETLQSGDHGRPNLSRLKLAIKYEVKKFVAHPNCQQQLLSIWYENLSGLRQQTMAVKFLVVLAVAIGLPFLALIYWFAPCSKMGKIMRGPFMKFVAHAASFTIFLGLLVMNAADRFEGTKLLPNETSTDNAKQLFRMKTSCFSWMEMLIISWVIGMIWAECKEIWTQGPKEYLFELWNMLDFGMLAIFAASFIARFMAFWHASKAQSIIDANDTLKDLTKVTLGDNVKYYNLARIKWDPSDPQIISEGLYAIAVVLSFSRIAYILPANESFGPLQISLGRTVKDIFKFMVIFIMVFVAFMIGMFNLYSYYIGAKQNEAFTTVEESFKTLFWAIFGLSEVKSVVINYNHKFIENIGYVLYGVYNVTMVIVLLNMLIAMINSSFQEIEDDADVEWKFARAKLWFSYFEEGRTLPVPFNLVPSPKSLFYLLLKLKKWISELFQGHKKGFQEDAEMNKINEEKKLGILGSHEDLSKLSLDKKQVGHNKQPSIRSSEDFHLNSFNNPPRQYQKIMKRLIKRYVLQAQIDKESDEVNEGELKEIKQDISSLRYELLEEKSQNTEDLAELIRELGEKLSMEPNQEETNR
Format: cell-based
Description: High Throughput Screening Assay
This screening assay measures human TRPC6 (transient receptor potential cation channel, subfamily C, member 6) ion channel activation via addition either of the commercially available DAG ligand analogue OAG (1-oleoyl-2-acetyl-sn-glycerol) or of the TRPC6 agonist 1-[1-(4,5,6,7,8-pentahydrocyclohepta[2,1-d]thiophen-2-ylcarbonyl)-4-piperidyl]-3-hydrobenzimidazol-2-one (GSK1702934A). The assay utilizes a fluorescent calcium sensor 4-(6-Acetoxymethoxy-2,7-difluoro-3-oxo-9-xanthenyl)-4′-methyl-2,2′-(ethylenedioxy)dianiline-N,N,N′,N′-tetraacetic acid tetrakis(acetoxymethyl) ester (Fluo4/AM) dye from Molecular Devices. Changes (increases) in intracellular calcium concentration as measured by the fluorescent signal increase provide a measurement of channel activity.
The commercially available HEK293/TREx line (Invitrogen) was stably transfected with a human TRPC6 construct and screened by conventional calcium imaging to find clones with human TRPC6 expression following stimulation with 1 μg/ml tetracycline. These cells were maintained in the growth medium recommended by the manufacturer supplemented with 100 μg/ml hygromycin to promote retention of the human TRPC6 construct. After growing to near confluency, cells were plated at a density of ^˜35,000 cells/well in 384 well CellBind plates (Corning) in the presence of 1 μg/ml tetracycline, and allowed to grow for 20-30 hrs. A nearly confluent monolayer resulted. Growth media was removed from the wells and cells were then loaded with […] Fluo4/AM diluted in Ringer's Solution (6.5 g NaCl, 0.42 g KCl, 0.25 g CaCl2) and 0.2 g of sodium bicarbonate; pH 7.4) supplemented with 1% Pluronic F-127 to a final concentration of 0.5 μM and incubated for 60 min, at room temperature. Dye solution was then removed from the cells by inverting plates with a sharp flick, and replaced with 25 μl Ringer's. Following ^˜0.5 hour for recovery from loading, cells were assayed using the Hamamatsu FDSS 6000 system, which permitted illumination at 485 nm. Frames were acquired at a rate of 0.2 Hz. During the assay, the plates were continuously vortexed, with pipette mixing of wells following addition of each reagent. For the screening assay, 26 μl of a diluted compound stock (at 50 μM) was added to each well for 2 minutes following the collection of a short (4 frame) baseline. 13 μl of agonist solution consisting of 125 nM GSK1702934A diluted in high-Ca2+Ringer solution (containing 90 mM Ca2+) was then added to each well, achieving a final concentration of 20 mM Ca2+ and 10 μM test compound. Data was collected for ^˜3 minutes following addition of high Ca2+Ringer. The fluorescent intensity observed at a particular timepoint for each well was divided by the initial fluorescent intensity for that well and the overall response was determined by averaging the resulting fluorescent ratio of the last 4 frames acquired during the experiment excepting the final frame. Negative and Positive controls were included on each plate. Negative controls wells consisted of HEK293/TREx TRPC6 cells exposed to assay buffer and agonist solution, but no test compound. Positive control consisted of wells consisted of HEK293/TREx TRPC6 cells exposed to 25 μM 3-[(2-chlorophenoxy)methyl]phenyl piperidyl ketone (Chembridge) diluted in Ringer's solution and agonist solution. These controls defined zero percent and 100 percent block respectively, and intensity of each well was normalized to these values.
Compounds were tested in triplicate at all concentrations. Standard software was used to fit IC50 curves.

Compound	IC50 [nM]
COc1cc(C(=O)N2CCN(c3cnc(N)cc3C)C[C@@H]2CO)ncc1-c1ccc(F)cc1 [Compound 93, [(R)-4-(6-Amino-4-methyl-pyridin-3-yl)-2-hydroxymethyl-piperazin-1-yl]-[5-(4-fluoro-phenyl)-4-methoxy-pyridin-2-yl]-methanone]	27
COc1cc(C(=O)N2CCC(c3ccc(N)nn3)CC2)ncc1-c1cccc(OCC(C)C)c1 [Compound 52, [4-(6-Amino-pyridazin-3-yl)-piperidin-1-yl]-[5-(3-isobutoxy-phenyl)-4-methoxy-pyridin-2-yl]-methanone]	240
COc1cc(C(=O)N2CCN(c3ccc(N)nc3)CC2)ncc1-c1ccc(C(F)(F)F)nc1 [Compound 67, [4-(6-Amino-pyridin-3-yl)-piperazin-1-yl]-(4-methoxy-6′-trifluoromethyl-[3,3′]bipyridinyl-6-yl)-methanone]	210
CC[C@H](C)Oc1ccc(-c2ccc(C(=O)N3CCC(c4ccc(N)nn4)CC3)cc2OC)cn1 [Compound 75, [4-(6-Amino-pyridazin-3-yl)-piperidin-1-yl]-{4-[6-((S)-sec-butoxy)-pyridin-3-yl]-3-methoxy-phenyl}-methanone]	91
COc1cc(-c2ccc(C(F)(F)F)cc2)ccc1C(=O)N1CCC(c2ccc(N)nn2)CC1 [Compound 66, [4-(6-Amino-pyridazin-3-yl)-piperidin-1-yl]-(3-methoxy-4′-trifluoromethyl-biphenyl-4-yl)-methanone]	520
COc1cc(C(=O)N2CCC(c3ccc(N)nn3)CC2)ncc1-c1ccc(OC(F)(F)F)nc1 [Compound 48, [4-(6-Amino-pyridazin-3-yl)-piperidin-1-yl]-(4-methoxy-6′-trifluoromethoxy-[3,3′]bipyridinyl-6-yl)-methanone]	130
COc1cc(C(=O)N2CCN(c3cnc(N)cc3OC)CC2CC(F)F)ncc1-c1ccc(C(F)(F)F)cc1 (stereo not shown) [Compound 108, [4-(6-Amino-4-methoxy-pyridin-3-yl)-2-(2,2-difluoro-ethyl)-piperazin-1-yl]-[4-methoxy-5-(4-trifluoromethyl-phenyl)-pyridin-2-yl]-methanone]	700
COc1cc(C(=O)N2CCN(c3cnc(N)cc3OC)CC2CC(F)F)ncc1-c1ccc(C(F)(F)F)cc1 (single isomer, unassigned) [Compound 109]	330
COC[C@H]1CN(c2cnc(N)cc2OC)CCN1C(=O)c1cc(OC)c(-c2ccc(F)cc2)cn1 [Compound 98, [(R)-4-(6-Amino-4-methoxy-pyridin-3-yl)-2-methoxymethyl-piperazin-1-yl]-[5-(4-fluoro-phenyl)-4-methoxy-pyridin-2-yl]-methanone]	200
COc1cc(C(=O)N2CCC(c3ccc(N)nn3)CC2)ncc1-c1ccc(OCC(F)(F)F)nc1 [Compound 47, [4-(6-Amino-pyridazin-3-yl)-piperidin-1-yl]-[4-methoxy-6′-(2,2,2-trifluoro-ethoxy)-[3,3′]bipyridinyl-6-yl]-methanone]	200
COc1cc(C(=O)N2CCC(c3ccc(N)nn3)CC2)ncc1-c1ccc(OC2CCC2)nc1 [Compound 49, [4-(6-Amino-pyridazin-3-yl)-piperidin-1-yl]-(6′-cyclobutoxy-4-methoxy-[3,3′]bipyridinyl-6-yl)-methanone]	140
COc1cc(C(=O)N2CCC(c3ccc(N)nn3)CC2)ncc1-c1ccc(C)c(F)c1 [Compound 34, [4-(6-Amino-pyridazin-3-yl)-piperidin-1-yl]-[5-(3-fluoro-4-methyl-phenyl)-4-methoxy-pyridin-2-yl]-methanone]	100
COc1cc(C(=O)N2CCC(c3ccc(N)nn3)CC2)ccc1-c1ccc(OC(F)(F)F)cc1 [Compound 56, [4-(6-Amino-pyridazin-3-yl)-piperidin-1-yl]-(2-methoxy-4′-trifluoromethoxy-biphenyl-4-yl)-methanone]	910
COc1cc(C(=O)N2CCC(c3ccc(N)nn3)CC2)ccc1-c1ccc(OCC(F)(F)F)cc1 [Compound 58, [4-(6-Amino-pyridazin-3-yl)-piperidin-l-yl]-[2-methoxy-4′-(2,2,2-trifluoro-ethoxy)-biphenyl-4-yl]-methanone]	81
COc1ccc(-c2cnc(C(=O)N3CCC(c4ccc(N)nn4)CC3)cc2OC)cn1 [Compound 46, [4-(6-Amino-pyridazin-3-yl)-piperidin-1-yl]-(4,6′-dimethoxy-[3,3′]bipyridinyl-6-yl)-methanone]	4000
Nc1ccc(N2CCN(C(=O)c3ccc(-c4ccc(C(F)(F)F)cc4)cc3)CC2)cn1 [Compound 12, [4-(6-Amino-pyridin-3-yl)-piperazin-1-yl]-(4′-trifluoromethyl-biphenyl-4-yl)-methanone]	2400
COc1cc(C(=O)N2C[C@@H]3C[C@H]2CN3c2ccc(N)nn2)ccc1-c1ccc(C(F)(F)F)cc1 [Compound 115, [(1S,4S)-5-(6-Amino-pyridazin-3-yl)-2,5-diaza-bicyclo[2.2.1]hept-2-yl]-(2-methoxy-4′-trifluoromethyl-biphenyl-4-yl)-methanone]	250
COc1cc(C(=O)N2CCN(c3cnc(N)cc3OC)C[C@H]2CO)ncc1-c1ccc(F)cc1 [Compound 102, [(S)-4-(6-Amino-4-methoxy-pyridin-3-yl)-2-hydroxymethyl-piperazin-1-yl]-[5-(4-fluoro-phenyl)-4-methoxy-pyridin-2-yl]-methanone]	840
CCc1cc(C(=O)N2CCC(c3ccc(N)nn3)CC2)ccc1-c1ccc(C(F)(F)F)cc1 [Compound 70, [4-(6-Amino-pyridazin-3-yl)-piperidin-1-yl]-(2-ethyl-4′-trifluoromethyl-biphenyl-4-yl)-methanone]	1400
Nc1ccc(C2CCN(C(=O)c3ccc(-c4ccc(F)cc4)cc3)CC2)nn1 [Compound 7, [4-(6-Amino-pyridazin-3-yl)-piperidin-1-yl]-(4′-fluoro-biphenyl-4-yl)-methanone]	3400
COc1cc(C(=O)N2CCC(c3ccc(N)nn3)CC2)ncc1-c1ccc(OC2CC2)cc1 [Compound 41, [4-(6-Amino-pyridazin-3-yl)-piperidin-1-yl]-[5-(4-cyclopropoxy-phenyl)-4-methoxy-pyridin-2-yl]-methanone]	130
COc1cc(C(=O)N2CCC(c3ccc(N)nn3)CC2)ccc1-c1ccc(OCC2CC2)nc1 [Compound 82, [4-(6-Amino-pyridazin-3-yl)-piperidin-1-yl]-[4-(6-cyclopropylmethoxy-pyridin-3-yl)-3-methoxy-phenyl]-methanone]	340
